Laboratory results as given in patent US8580785B2, “Insecticides” (Syngenta Crop Protection LLC, priority 2005, dated 2013).

Legend:
[1] = test system: Plutella xylostella; experiment: Activity against Plutella xylostella; assay type: in vivo; conditions: 72 h, 400 ppm spray on young cabbage plants, 3rd instar caterpillars, 3 days, read-out: percentage reduction in the population and in the feeding damage (% activity)
Protocol: (§1) Young cabbage plants are sprayed with an aqueous emulsion spray mixture comprising 400 ppm of active ingredient and, after the spray coating has dried on, populated with 10 caterpillars (3rd instar) of Plutella xylostella and introduced into a plastic container. 3 days later, the percentage reduction in the population and in the feeding damage (% activity) are determined by comparing the number of dead caterpillars and the feeding damage between the treated and untreated plants.

[2] = test system: Spodoptera littoralis; experiment: Activity against Spodoptera littoralis; assay type: in vivo; conditions: 72 h, 400 ppm spray on young soya plants, 1st instar caterpillars, 3 days, read-out: percentage reduction in the population and in the feeding damage (% activity)
Protocol: as §1, with “soya” for “cabbage”, “(1st” for “(3rd”, “Spodoptera littoralis” for “Plutella xylostella”

[3] = test system: Heliothis virescens; experiment: Activity against Heliothis virescens (foliar application); assay type: in vivo; conditions: 144 h, 400 ppm spray on young soya plants, 1st instar caterpillars, 6 days, read-out: percentage reduction in the population and in the feeding damage (% activity)
Protocol: as §1, with “soya” for “cabbage”, “(1st” for “(3rd”, “Heliothis virescens” for “Plutella xylostella”, “6” for “3”

[4] = test system: Frankliniella occidentalis; experiment: Activity against Frankliniella occidentalis; assay type: in vivo; conditions: bean leaf discs (6 days) or bean plants (14 days); mixed population
Protocol: Bean leaf discs on agar in petri dishes or bean plants in a spray chamber are treated with diluted test solutions. After drying leaf discs are cut and placed in plastic cups on the surface of an agar layer and infested with mixed population. 6 days (leaf discs) or 14 days (plants) after the infestation, samples are checked for reduction of treated population and compared to the non treated population. In this test, compounds listed in Table P above show good activity. In particular compound T7.1.7 has an activity of over 80%.

[5] = test system: Diabrotica balteata; experiment: Activity against Diabrotica balteata (sprayed maize seedlings); assay type: in vivo; conditions: 144 h, 400 ppm spray on maize seedlings, 2nd instar larvae, 6 days, read-out: percentage reduction in the population (% activity)
Protocol: Maize seedlings are sprayed with an aqueous emulsion spray mixture comprising 400 ppm of active ingredient and, after the spray coating has dried on, populated with 10 larvae (2nd instar) of Diabrotica balteata and introduced into a plastic container. 6 days later, the percentage reduction in the population (% activity) is determined by comparing the number of dead larvae between the treated and untreated plants.

[6] = test system: Myzus persicae; experiment: Systemic insecticide test for Myzus persicae; assay type: in vivo; conditions: roots of infected pea seedlings in 400 ppm spray mixture, 20°, 3 and 6 days, read-out: percentage reduction in the population (% activity)
Protocol: Pea seedlings are infected with Myzus persicae, and their roots are subsequently placed into a spray mixture comprising 400 ppm of active ingredient. The seedlings are then incubated at 20°. 3 and 6 days later, the percentage reduction in the population (% activity) is determined by comparing the number of dead aphids between the treated and untreated plants.

Row | Structure (SMILES) | melting point [°C] | inhibition at 400 ppm [1] [%] | inhibition at 400 ppm [2] [%] | inhibition at 400 ppm [3] [%] | reduction of treated population (activity) [4] | inhibition at 400 ppm [5] [%] | inhibition at 400 ppm [6] [%]
1 | CNC(=O)c1cc2[nH]cnc2c(Cl)c1NC(=O)c1cc(C(F)(F)F)nn1-c1ncccc1Cl | 190 to 192 | – | – | – | – | – | –
2 | O=C(NCC1CC1)c1cc2nccnc2c(Cl)c1NC(=O)c1cc(C(F)(F)F)nn1-c1ncccc1Cl [Compound T1.1.14, 8-chloro-7-{[2-(3-chloro-pyridin-2-yl)-5-trifluoromethyl-2H-pyrazole-3-carbonyl]-amino}-quinoxaline-6-carboxylic acid cyclopropylmethyl-amide] | – | > 80 | > 80 | – | – | – | –
3 | Cc1ccc2c(C)c(NC(=O)c3cc(C(F)(F)F)nn3-c3ncccc3Cl)c(C(=O)NC(C)C)cc2n1 [Compound T7.1.7] | – | > 80 | > 80 | > 80 | over 80% | – | –
4 | CNC(=O)c1cc2nc(C(F)(F)F)ccc2c(C)c1NC(=O)c1cc(C(F)(F)F)nn1-c1ncccc1Cl [Compound T8.1.1, 6-{[2-(3-Chloro-pyridin-2-yl)-5-trifluoromethyl-2H-pyrazole-3-carbonyl]-amino}-5-methyl-2-trifluoromethyl-quinoline-7-carboxylic acid methyl amide] | 227 to 230 | > 80 | > 80 | – | – | > 80 | –
5 | CNC(=O)c1cc2nc(C(F)(F)F)ccc2c(Cl)c1NC(=O)c1cc(C(F)(F)F)nn1-c1ncccc1Cl [Compound T8.1.2, 5-Chloro-6-{[2-(3-chloro-pyridin-2-yl)-5-trifluoromethyl-2H-pyrazole-3-carbonyl]-amino}-2-trifluoromethyl-quinoline-7-carboxylic acid methyl amide] | 233 to 237 | > 80 | > 80 | – | – | > 80 | –
6 | CNC(=O)c1cc2nc(C(F)(F)F)ccc2c(OC)c1NC(=O)c1cc(C(F)(F)F)nn1-c1ncccc1Cl [Compound T8.1.121, 6-{[2-(3-Chloro-pyridin-2-yl)-5-trifluoromethyl-2H-pyrazole-3-carbonyl]-amino}-5-methoxy-2-trifluoromethyl-quinoline-7-carboxylic acid methyl amide] | – | > 80 | > 80 | – | – | – | –
7 | CNC(=O)c1cc2nc(C(F)(F)F)ccc2cc1NC(=O)c1cc(Br)nn1-c1ncccc1Cl [Compound T8.1.153, 6-{[5-Bromo-2-(3-chloro-pyridin-2-yl)-2H-pyrazole-3-carbonyl]-amino}-2-trifluoromethyl-quinoline-7-carboxylic acid methyl amide] | 120 to 127 | > 80 | > 80 | – | – | – | –
8 | Cc1nc2cc(C(=O)NC(C)C)c(NC(=O)c3cc(C(F)(F)F)nn3-c3ncccc3Cl)c(Cl)c2nc1C [Compound T19.1.8, 8-chloro-7-{[2-(3-chloro-pyridin-2-yl)-5-trifluoromethyl-2H-pyrazole-3-carbonyl]-amino}-2,3-dimethyl-quinoxaline-6-carboxylic acid isopropylamide] | – | – | > 80 | – | – | – | –
9 | CNC(=O)c1cc2nsnc2c(Cl)c1NC(=O)c1cc(C(F)(F)F)nn1-c1ncccc1Cl [Compound T20.1.2, 7-chloro-6-{[2-(3-chloro-pyridin-2-yl)-5-trifluoromethyl-2H-pyrazole-3-carbonyl]-amino}-benzo[1,2,5]thiadiazole-5-carboxylic acid methylamide] | – | > 80 | > 80 | – | – | – | –
10 | CC(C)NC(=O)c1cc2nsnc2c(Cl)c1NC(=O)c1cc(C(F)(F)F)nn1-c1ncccc1Cl [Compound T20.1.8, 7-chloro-6-{[2-(3-chloro-pyridin-2-yl)-5-trifluoromethyl-2H-pyrazole-3-carbonyl]-amino}-benzo[1,2,5]thiadiazole-5-carboxylic acid isopropylamide] | – | > 80 | > 80 | – | – | – | –
11 | O=C(NCC1CC1)c1cc2nsnc2c(Cl)c1NC(=O)c1cc(C(F)(F)F)nn1-c1ncccc1Cl [Compound T20.1.14, 7-chloro-6-{[2-(3-chloro-pyridin-2-yl)-5-trifluoromethyl-2H-pyrazole-3-carbonyl]-amino}-benzo[1,2,5]thiadiazole-5-carboxylic acid cyclopropylmethyl-amide] | – | > 80 | > 80 | – | – | – | –
12 | CC(C)NC(=O)c1cc2[nH]cnc2c(Cl)c1NC(=O)c1cc(C(F)(F)F)nn1-c1ncccc1Cl [Compound T21.1.8, 7-chloro-6-{[2-(3-chloro-pyridin-2-yl)-5-trifluoromethyl-2H-pyrazole-3-carbonyl]-amino}-3H-benzoimidazole-5-carboxylic acid isopropylamide] | 200 to 203 | > 80 | > 80 | – | – | – | –
13 | O=C(NCC1CC1)c1cc2[nH]cnc2c(Cl)c1NC(=O)c1cc(C(F)(F)F)nn1-c1ncccc1Cl [Compound T21.1.14] | 198 to 201 | > 80 | – | – | – | – | –
14 | CC(C)NC(=O)c1cc2ncn(C)c2c(Cl)c1NC(=O)c1cc(C(F)(F)F)nn1-c1ncccc1Cl [Compound T22.1.8, 7-chloro-6-{[2-(3-chloro-pyridin-2-yl)-5-trifluoromethyl-2H-pyrazole-3-carbonyl]-amino}-1-methyl-1H-benzoimidazole-5-carboxylic acid isopropylamide] | 150 to 155 | > 80 | > 80 | – | – | > 80 | –
15 | Cn1cnc2cc(C(=O)NCC3CC3)c(NC(=O)c3cc(C(F)(F)F)nn3-c3ncccc3Cl)c(Cl)c21 [Compound T22.1.14] | 148 to 151 | > 80 | > 80 | – | – | – | –
16 | Cc1nc2cc(C(=O)NC(C)C)c(NC(=O)c3cc(C(F)(F)F)nn3-c3ncccc3Cl)c(Cl)c2n1C [Compound T35.1.8, 7-chloro-6-{[2-(3-chloro-pyridin-2-yl)-5-trifluoromethyl-2H-pyrazole-3-carbonyl]-amino}-1,2-dimethyl-1H-benzoimidazole-5-carboxylic acid isopropylamide] | 248 to 250 | > 80 | > 80 | – | – | – | > 80
17 | Cc1nc2cc(C(=O)NCC3CC3)c(NC(=O)c3cc(C(F)(F)F)nn3-c3ncccc3Cl)c(Cl)c2n1C [Compound T35.1.14] | 233 to 235 | – | > 80 | – | – | – | –
18 | CC(C)NC(=O)c1cc2nc(C3CC3)n(C)c2c(Cl)c1NC(=O)c1cc(C(F)(F)F)nn1-c1ncccc1Cl [Compound T37.1.8, 7-chloro-6-{[2-(3-chloro-pyridin-2-yl)-5-trifluoromethyl-2H-pyrazole-3carbonyl]-amino}-2-cyclopropyl-1-methyl-1H-benzoimidazole-5-carboxylic acid isopropylamide] | 242 to 244 | > 80 | > 80 | – | – | – | –
19 | Cn1c(C2CC2)nc2cc(C(=O)NCC3CC3)c(NC(=O)c3cc(C(F)(F)F)nn3-c3ncccc3Cl)c(Cl)c21 [Compound T37.1.14] | 233 to 235 | > 80 | > 80 | – | – | – | –
20 | CSC1=NC2C=C(C(=O)NCC3CC3)C(NC(=O)c3cc(C(F)(F)F)nn3-c3ncccc3Cl)=C(Cl)C2S1 (centres unmarked) [Compound T94.1.14, 7-chloro-6-{[2-(3-chloro-pyridin-2-yl)-5-trifluoromethyl-2H-pyrazole-3-carbonyl]-amino}-2-methylsulfanyl-3a,7a-dihydro-benzothiazole-5-carboxylic acid cyclopropylmethyl-amide] | 221 to 223 | > 80 | > 80 | – | – | – | –
21 | COC1=NC2C=C(C(=O)NCC3CC3)C(NC(=O)c3cc(C(F)(F)F)nn3-c3ncccc3Cl)=C(Cl)C2S1 (centres unmarked) [Compound T115.1.14, 7-chloro-6-{[2-(3-chloro-pyridin-2-yl)-5-trifluoromethyl-2H-pyrazole-3-carbonyl]-amino}-2-methoxy-3a,7a-dihydro-benzothiazole-5-carboxylic acid cyclopropylmethyl-amide] | – | > 80 | > 80 | – | – | – | –
